Tests used:
E. coli = test: Growth of bacteria attached to a magnetic microsphere, monitored by nonlinear rotation period; format: cell-based; conditions: bacteria exposed to isopropyl alcohol (70%) for 15 minutes; control, FIG. 4d circles; growth media alone gave 75% increase over 25 min
Text: Rotation rates were observed under fluorescent, reflection, and bright-field microscopy. FIG. 4(a) was obtained by measuring the average rotation rate of a magnetic microsphere (with an attached E. coli) for increasing magnetic driving frequencies. The critical frequency, where the magnetic particle goes from synchronous with driving field to asynchronous (nonlinear), occurs abruptly at 1.27 Hz. Measurements for (b), (c), and (d) were then made in this nonlinear regime. Bacteria attached to magnetic microspheres were optically detected by fluorescence of DsRed fluorescent protein transformed bacteria.
The magnetic microspheres with one bacterium attached rotated 33.8 times slower than the blank microspheres. […] There was an incremental 75% increase in rotation period over 25 min.

E. coli K-12 bacteria = test: Effect of antibiotic on bacterial growth, monitored by nonlinear rotation of magnetic particles; format: cell-based; conditions: 5% w/v Ampicillin antibiotic solution; cluster of 40 μm magnetic particles attached to small colony; Luria Broth (Miller) Growth Media; FIG. 9 bottom curve
Text: The top curve is for several particles attached to a small colony of E. coli K-12 bacteria in Luria Broth (Miller) Growth Media. The rotational period increases over time, indicating bacterial grow. […] In certain configurations, especially when particles are at an interface, such as an air-liquid interface, the nonlinear rotation may occur in a plane perpendicular to the plane of the external driving magnetic field. This type of nonlinear rotation occurred in the above exemplary measurement.

SMILES | change in normalized rotation period (growth of attached bacteria) (E. coli) | normalized rotational period over time (indicator of bacterial growth) (E. coli K-12 bacteria)
CC(C)O [isopropyl alcohol] | an increase just within the limits of the error bars | 
CC1(C)S[C@@H]2[C@H](NC(=O)[C@H](N)c3ccccc3)C(=O)N2[C@H]1C(=O)O [Ampicillin] |  | decreases or stays constant over time

From US9068977B2, “Non-linear rotation rates of remotely driven particles and uses thereof” (THE REGENTS OF THE UNIVERSITY OF MICHIGAN, priority 2007, dated 2015)
